≈ marks a conversion by molar mass, not a printed value. Counter-ions that a name gives are not always drawn. Like-named read-outs stand apart in the source and are kept apart here.
Columns and labels:
Assay type in all cases: cell-based
[1] = system: Aspergillus flavus AFL1 (ATCC MYA-3631); assay: Fungal MIC Protocol, Aspergillus flavus; conditions: for MIC: Aspergillus flavus, read-out: MIC Aspergillus flavus 3631
Procedure: (§1) Fungal MIC Protocol: RPMI/MOPS media (Roswell Park Memorial Institute/3-morpholinopropane-1-sulfonic acid media) is prepared by dissolving 8.4 grams RPMI […] (Sigma cat #R1383), 34.52 grams MOPS buffer (Sigma cat #M3.183) and 2 […] glucose in 900 mL deionized water. The pH is adjusted to 7.0 with NaOH and filter sterilized. 0.1 mL, of a stock spore suspension (or loop from frozen stock) is inoculated to a 75 mL tissue culture flask (Falcon cat #353136) containing 50 mL of Potato Dextrose Agar (PDA, 24 grams PD broth (Fisher cat #DF 0549179), 20 grams agar (Fisher cat #BP 1423500) per liter water). Aspergillus and Fusarium strains are grown at 35° C. and Mucor strains are grown at room temperature for 3-5 days. Spores are harvested by flooding the flask with 5 mL phosphate buffered saline (PBS) pH 7.4+0.1% Tween-20 and several glass beads (Fisher cat #S800243) are added to aid in agitation. The supernatant is removed and the OD530 of a 1:100 dilution is measured. Spores are diluted in RPMI/MOPS to a final OD530 of 0.002 for Aspergillus and an OD530 of 0.005 for Fusarium and Mucor. The final concentration of spores is approximately 2×10^4 cfu/mL. Test compound(s) are diluted to 200 ug/mL in RPMI/MOPS ([…]). Ten (10) serial dilutions are prepared with RPMI/MOPS in a 96-well round bottom plate (Fisher cat #353136). For Mucor strains a sterile flat-bottom 96-well plate is used. 50 μl of compound dilutions in duplicate are added to a sterile 96-well round bottom plate. 50 ul of diluted spores are added to the compound-containing plates. Control wells include 1) compound but no cells and 2) spores but no compound. Mix the plates gently by hand, place in ziplock bags and
(§2) incubate at 35° C. for 48 hours. […]

[2] = system: Aspergillus fumigatus T33439 (ATCC MYA-3626); assay: Fungal MIC Protocol, Aspergillus fumigatus; conditions: for MIC: Aspergillus fumigatus, read-out: MIC Aspergillus fumigatus 3626
Procedure: as §1, §2

[3] = system: Fusarium falciforme FS1 (ATCC MYA-3636); assay: Fungal MIC Protocol, Fusarium falciforme; conditions: for MIC: Fusarium falciforme, read-out: MIC Fusarium falciforme 3636
Procedure: as §1, §2

[4] = system: Fusarium solani (ATCC 58877); assay: Fungal MIC Protocol, Fusarium solani; conditions: for MIC: Fusarium solani, read-out: MIC Fusarium solani 58877
Procedure: as §1, §2

[5] = system: Mucor circinelloides 1463(62) (ATCC 26759); assay: Fungal MIC Protocol, Mucor circinelloides (MIC-50); conditions: for MIC50: Mucor circinelloides, read-out: MIC-50 Mucorales circinelloides 26579
Procedure: as §1
(§3) incubate at 35° C. for 48 hours. Score the MIC visually (lowest concentration of compound showing >50% growth inhibition) using an inverted mirror.

[6] = system: Mucor ramosissimus 057718 (ATCC 90286); assay: Fungal MIC Protocol, Mucor ramosissimus (MIC-50); conditions: for MIC50: Mucor ramosissimus, read-out: MIC-50 Mucorales ramosissimus 90286
Procedure: as §1, §3

Candida albicans GDH2346 = assay: Candida Minimal Inhibitory Concentration (MIC); conditions: 50% growth inhibition at 48 hours; for MIC50: Candida albicans, GDH2346, read-out: MIC-50 Candida albicans GDH2346
Procedure: Candida Minimal Inhibitory Concentration (MIC): RPMI/MOPS media is prepared by dissolving 8.4 g RPMI 1640, 34.52 g MOPS buffer and 2 g glucose in 900 mL water. The pH is adjusted to 7.0 with NaOH. The total volume is brought to 1 L and the resulting solution is filter sterilized. The Candida stock is streaked on a Yeast extract Peptone Dextrose (YPD) agar plate and grown at 35° C. for isolation of single colonies. Compounds of the disclosure are diluted to 200 μg/mL in RPMI/MOPS (4.8 ul of 10 mg/mL DMSO stock in 240 ul media). Ten (10) 1:2 serial dilutions are prepared in RPMI/MOPS in a 96-well round bottom plate. Fifty (50) μl of compound dilutions are transferred in duplicate to a sterile tissue culture-treated 96-well flat-bottom, black-sided polypropylene plate. A single colony of Candida from the YPD plate is re-suspended in 5 mL phosphate buffered saline (BS) and optical density (OD) at 600 nm is measured. The suspension is adjusted to OD=1.0 and a 1:1000 dilution is prepared in RPMI/MOPS. Fifty (50) ul aliquots of the diluted yeast are added to the plates containing 50 μL of compound to all wells except 12E-H. Control wells include: 12 A-D cells, no compound and 12 E-H no cells, no compound. The plates are mixed gently by hand and placed in Ziplok bags in a 35° C. incubator. The OD600 is measured at 24 and 48 hours.

[7] = 100% growth inhibition at 48 hours
[8] = 50% growth inhibition at 48 hours

Compound | MIC [1, 7] [µg/mL] | MIC [2, 7] [µg/mL] | MIC50 (Candida albicans GDH2346) [µg/mL] | other results
4,4-(4,4-(4-Cyclohexyl-4H-1,2,4-triazole-3,5-diyl)bis(4,1-phenylene))bis (5,6-dihydropyridine-1(2H)-carboximidamide) [Example 56] |  |  |  | MIC Aspergillus flavus 3631 [1, 7]: 0.39 µg·mL; MIC Aspergillus fumigatus 3626 [2, 7]: 0.39 µg·mL; MIC Fusarium falciforme 3636 [3, 7]: <0.1 µg·mL; MIC Fusarium solani 58877 [4, 7]: <0.1 µg·mL; MIC-50 Mucorales circinelloides 26579 [5, 8]: 0.39 µg/mL; MIC-50 Mucorales ramosissimus 90286 [6, 8]: 1.56 µg/mL; MIC-50 Candida albicans GDH2346 (Candida albicans GDH2346): 0.78 µg/mL
Cc1c(C2=CCN(C(=N)N)CC2)ccc(-c2nnc(-c3ccc(C4=CCN(C(=N)N)CC4)cc3)o2)c1C [Example 44, 4-(4-(5-(4-(1-Carbamimidoyl-1,2,3,6-tetrahydropyridin-4-yl)-2,3-dimethylphenyl)-1,3,4-oxadiazol-2-yl)phenyl)-5,6-dihydropyridine-1(2H)-carboximidamide] | 1.56 (≈ 3.14 µM) | 6.25 (≈ 12.6 µM) | 0.39 (≈ 0.785 µM) | 
Cc1cc(C2=CCN(C(=N)N)CC2)cc(C)c1-c1nnc(-c2ccc(C3=CCN(C(=N)N)CC3)cc2)o1 [Example 45, 4-(4-(5-(4-(1-Carbamimidoyl-1,2,3,6-tetrahydropyridin-4-yl)-2,6-dimethylphenyl)-1,3,4-oxadiazol-2-yl)phenyl)-5,6-dihydropyridine-1(2H)-carboximidamide] | 0.39 (≈ 0.785 µM) | 0.39 (≈ 0.785 µM) | 0.39 (≈ 0.785 µM) | 
N=C(N)N1CC=C(c2ccc(-c3nnc(-c4ccc(C5=CCN(C(=N)N)CC5)cc4C(F)(F)F)o3)cc2)CC1 [Example 46, 4-(4-(5-(4-(1-Carbamimidoyl-1,2,3,6-tetrahydropyridin-4-yl)-2-(trifluoromethyl)phenyl)-1,3,4-oxadiazol-2-yl)phenyl)-5,6-dihydropyridine-1(2H)-carboximidamide] | 1.56 (≈ 2.91 µM) | 1.56 (≈ 2.91 µM) | 0.2 (≈ 0.373 µM) | 
CNc1cc(C2=CCN(C(=N)N)CC2)ccc1-c1nnc(-c2ccc(C3=CCN(C(=N)N)CC3)cc2F)o1 [Example 47a, 4-(4-(5-(4-(1-Carbamimidoyl-1,2,3,6-tetrahydropyridin-4-yl)-2-(methylamino)phenyl)-1,3,4-oxadiazol-2-yl)-3-fluorophenyl)-5,6-dihydropyridine-1(2H)-carboximidamide] | 0.39 (≈ 0.756 µM) | 1.56 (≈ 3.03 µM) | 0.78 (≈ 1.51 µM) | 
CNc1cc(C2=CCN(C(=N)N)CC2)ccc1-c1nnc(-c2ccc(C3=CCN(C(=N)N)CC3)cc2NC)o1 [Example 47b, 4,4′-(4,4′-(1,3,4-Oxadiazole-2,5-diyl)bis(3-(methylamino)-4,1-phenylene))bis(5,6-dihydropyridine-1(2H)-carboximidamide)] |  |  |  | MIC Aspergillus flavus 3631 [1, 7]: 0.78 µg·mL; MIC Aspergillus fumigatus 3626 [2, 7]: 0.78 µg·mL; MIC-50 Candida albicans GDH2346 (Candida albicans GDH2346): 1.56 µg/mL (≈ 2.96 µM)
N=C(N)N1CCN(c2ccc(-c3nnc(-c4ccc(N5CCN(C(=N)N)CC5)cc4)o3)cc2)CC1 [Example 51, 4,4′-(4,4′-(1,3,4-Oxadiazole-2,5-diyl)bis(4,1-phenylene)) dipiperazine-1-carboximidamide] | 6.25 (≈ 13.2 µM) | 0.78 (≈ 1.64 µM) | 3.13 (≈ 6.6 µM) | 
N=C(N)N1CCC(c2ccc(-c3nnc(-c4ccc(C5CCN(C(=N)N)CC5)cc4)o3)cc2)CC1 [Example 52, 4,4′-(4,4′-(1,3,4-Oxadiazole-2,5-diyl)bis(4,1-phenylene)) dipiperidine-1-carboximidamide] | 6.25 (≈ 13.2 µM) | 50 (≈ 106 µM) | 4.3 (≈ 9.1 µM) | 
Cc1cc(C2CCN(C(=N)N)CC2)ccc1-c1nnc(-c2ccc(C3CCN(C(=N)N)CC3)cc2)o1 [Example 53, 4-(4-(5-(4-(1-Carbamimidoylpiperidin-4-yl)-2-methylphenyl)-1,3,4-oxadiazol-2-yl)phenyl)piperidine-1-carboximidamide] | 6.25 (≈ 12.8 µM) | 25 (≈ 51.4 µM) | 1.56 (≈ 3.21 µM) | 
Cn1nc(-c2ccc(N3CCN(C(=N)N)CC3)cc2)cc1-c1ccc(N2CCN(C(=N)N)CC2)cc1 [Example 55, 4,4′-(4,4′-(1-Methyl-1H-pyrazole-3,5-diyl)bis(4,1-phenylene)) dipiperazine-1-carboximidamide] | 3.13 (≈ 6.43 µM) | 0.78 (≈ 1.6 µM) | 1.56 (≈ 3.21 µM) | 
Cc1cc(-c2nnc(-c3ccc(N4CCN(C(=N)N)CC4)cc3)o2)ccc1N1CCN(C(=N)N)CC1 [Example 60, 4-(4-{5-[4-(4-Carbamimidoylpiperazin-1-yl)-3-methylphenyl]-1,3,4-oxadiazol-2-yl}phenyl)piperazine-1-carboximidamide] | 25 (≈ 51.2 µM) | 25 (≈ 51.2 µM) | 1.56 (≈ 3.19 µM) | 
Cc1cc(N2CCN(C(=N)N)CC2)ccc1-c1nnc(-c2ccc(N3CCN(C(=N)N)CC3)cc2)o1 [Example 61, 4-(4-{5-[4-(4-Carbamimidoylpiperazin-1-yl)-2-methylphenyl]-1,3,4-oxadiazol-2-yl}phenyl)piperazine-1-carboximidamide] | 3.13 (≈ 6.41 µM) | 0.78 (≈ 1.6 µM) | 1.56 (≈ 3.19 µM) | 
COCCOCCn1c(-c2ccc(C3=CCN(C(=N)N)CC3)cc2F)nnc1-c1ccc(C2=CCN(C(=N)N)CC2)cc1F [Example 81, 4-(4-{5-[4-(1-carbamimidoyl-1,2,3,6-tetrahydropyridin-4-yl)-2-fluorophenyl]-4-[2-(2-methoxyethoxy)ethyl]-4H-1,2,4-triazol-3-yl}-3-fluorophenyl)-1,2,3,6-tetrahydropyridine-1-carboximidamide] | 0.78 (≈ 1.29 µM) | 0.39 (≈ 0.644 µM) |  | MIC [3, 7]: 0.1 µg/mL (≈ 0.165 µM); MIC ([4]; ATCC58877, 100% growth inhibition at 48 hours): 0.1 µg/mL (≈ 0.165 µM); MIC50 ([5]; ATCC26759, 50% growth inhibition at 48 hours): 1.56 µg/mL (≈ 2.58 µM); MIC50 ([6]; ATCC90286, 50% growth inhibition at 48 hours): 6.25 µg/mL (≈ 10.3 µM)
CC(CO)n1c(-c2ccc(C3=CCN(C(=N)N)CC3)cc2F)nnc1-c1ccc(C2=CCN(C(=N)N)CC2)cc1F (stereo not shown) [Example 83, 4-(4-{5-[4-(1-carbamimidoyl-1,2,3,6-tetrahydropyridin-4-yl)-2-fluorophenyl]-4-(1-hydroxypropan-2-yl)-4H-1,2,4-triazol-3-yl}-3-fluorophenyl)-1,2,3,6-tetrahydropyridine-1-carboximidamide hydrochloride] |  |  |  | MIC ([1]; 48 h): 0.78 µg/mL; MIC ([2]; 48 h): 0.39 µg/mL; MIC ([3]; 48 h): 0.2 µg/mL; MIC ([4]; ATCC58877, 48 h): 0.2 µg/mL; MIC50 ([5]; ATCC26759, 48 h): 1.56 µg/mL; MIC50 ([6]; ATCC90286, 48 h): 12.5 µg/mL

— patent US20240018121A1, “NOVEL HETEROAROMATIC COMPOUNDS EXHIBITING ANTIFUNGAL ACTIVITY AND THEIR METHOD OF USE” (FOX CHASE CHEMCIAL DIVERSITY CENTER, INC., priority 2020, published 2024)
